Laboratory results reported in patent US12252524B2, “GIP/GLP1 co-agonist compounds” (Eli Lilly and Company, priority 2018, dated 2025).
Where two headings read alike, the source gives them in different places. Numbered stars: 1 amine (or outer) side, 2 acyl side, 3 side chain; on linkers, the order of the positions; unused ones are H or OH. Square brackets hold non-standard residues; d marks the D form. Side chains are listed from the residue outwards. Peptide text beside a SMILES is read from it. * marks the point of attachment. C18 diacid = O=C(O)CCCCCCCCCCCCCCCCC(=O)*; αMePhe(2-F) = C[C@](N)(Cc1ccccc1F)C(=O)O; γGlu = O=C(O)[C@H](CCC(=O)[*:2])N[*:1]; αMeL = CC(C)C[C@](C)(N)C(=O)O; Orn = NCCC[C@H](N)C(=O)O; AEEA = NCCOCCOCC(=O)O; Aib = CC(C)(N)C(=O)O

Tests used:
[1] = system: CD8+ T cell depleted peripheral blood mononuclear cells; assay: CD4+ T cell assay for potential clinical immunogenicity
[2] = in vivo; conditions: male, cynomolgus monkey, plasma, sc, 50 nmol/kg
Description: (§1) Pharmacokinetics in male Cynomolgus Monkeys The pharmacokinetics of select Examples are evaluated following a single subcutaneous administration of 50 nMol/kg to male cynomolgus monkeys. […] Peptide plasma (K3 EDTA) concentrations are determined using a qualified LC/MS method that measured the intact mass of the compound. […] Instruments are combined for LC/MS detection.

[3] = single subcutaneous 50 nMol/kg, male Sprague Dawley rats; mean (SD)
Description: (§2) The pharmacokinetics of select Examples are evaluated following a single subcutaneous (SC) administration of 50 nMol/kg (dissolved in PBS, pH 7.4) or single 1 μmol/kg (mixed with 250 mM sodium decanoate (“C10”) and 12 mg/mL soybean trypsin inhibitor (SBTI)) intrajejunal (IJ) administration to male Sprague Dawley rats. […] Pharmacokinetic parameters are calculated using individual plasma concentrations. A qualified LC/MS method that measures the intact mass of the Example is used to determine plasma (K3 EDTA) concentrations. Each Example is tested with an analog peptide as an internal standard. Immunoaffinity based precipitation with anti-GIP/GLP1 antibodies is used to extract each test peptide and analog.

[4] = single subcutaneous 200 nMol/kg, male CD-1 mice
Description: (§3) The pharmacokinetics of select Examples are evaluated following a single subcutaneous administration of 200 nMol/kg to male CD-1 mice. […] Plasma (K3 EDTA) concentrations are determined using a qualified LC/MS method that measures the intact mass of the Examples. […] Instruments are combined for LC/MS detection.

[5] = in vivo; conditions: male, Sprague Dawley, rat, plasma, other: intrajejunal, 1 umol/kg
Description: as §2

[6] = single intrajejunal 1 μmol/kg with 250 mM C10 and 12 mg/mL SBTI, male Sprague Dawley rats
Description: as §2

[7] = in vivo; conditions: male, Sprague Dawley, rat, plasma, sc, 50 nmol/kg
Description: as §2

[8] = Proteolytic stability assay in 1% rat small intestinal fluid (rSIF)
[9] = in vivo; conditions: male, CD-1, mouse, plasma, sc, 200 nmol/kg
Description: as §3

[10] = single subcutaneous 50 nMol/kg, male cynomolgus monkeys
Description: as §1

[11] = Peptide stability in 50% v/v pig small intestinal fluid with and without protease inhibitor; assay type: in vitro ADME; conditions: for remaining at 0.25 h / remaining at 0.5 h / remaining at 1 h: read-out: % peptide intact
Description: A peptide is incubated at 37° C. in 1% (v/v) rat small intestinal fluid or 50% (v/v) pig small intestinal fluid with and without a peptidase inhibitor. At different time points, samples are taken out, followed by quenching with 1% TFA in 50% ACN/water to stop the enzyme activity. The intact peptide at different time points is analyzed by high-performance liquid chromatography (HPLC) equipped with an ultraviolet (UV) detector or LC-MS/MS and normalized to the amount of peptide before mixing with the enzyme solution.

[12] = target: human GLP-1R (Homo sapiens, UniProt P43220); assay: GLP-1R CHO cell β-arrestin recruitment assay; assay type: cell-based; design: host or cells: CHO-K1 PathHunter cells, assay-ready frozen
human GLP-1R, sequence (P43220 24-463): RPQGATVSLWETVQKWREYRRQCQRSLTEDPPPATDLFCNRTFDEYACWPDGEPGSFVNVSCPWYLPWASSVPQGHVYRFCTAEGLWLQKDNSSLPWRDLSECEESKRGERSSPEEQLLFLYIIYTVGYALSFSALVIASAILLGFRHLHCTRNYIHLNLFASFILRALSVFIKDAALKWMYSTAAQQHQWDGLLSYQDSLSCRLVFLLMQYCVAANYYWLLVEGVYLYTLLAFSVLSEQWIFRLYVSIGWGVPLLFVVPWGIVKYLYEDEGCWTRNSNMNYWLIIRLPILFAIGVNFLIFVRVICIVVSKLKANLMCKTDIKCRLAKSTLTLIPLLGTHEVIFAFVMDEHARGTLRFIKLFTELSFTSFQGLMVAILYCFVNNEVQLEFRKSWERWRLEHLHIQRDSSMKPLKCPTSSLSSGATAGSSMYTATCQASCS
Method in brief: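 PathHunter CHO-K1 cells with ProLink-tagged human GLP-1R and enzyme-acceptor-tagged β-arrestin-2 treated with serially diluted peptides in assay buffer containing 0.1% hydrolyzed casein, 90 min at 37 °C.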

[13] = Examples 10 uM, KLH 0.33 μM, 7 days
[14] = rat, real gastrointestinal fluid or homogenate, pH 8

## CC[C@H](C)[C@H](NC(=O)[C@H](CC(C)C)NC(=O)[C@H](Cc1ccc(O)cc1)NC(=O)[C@@H](CCC(=O)O)NC(=O)[C@@H](NC(=O)[C@H](Cc1ccccc1)NC(=O)[C@H](CCC(=O)O)NC(=O)C(C)(C)NC(=O)[C@H](CCC(N)=O)NC(=O)[C@H](C)NC(=O)[C@H](CCCCNC(=O)COCCOCCNC(=O)COCCOCCNC(=O)CC[C@H](NC(=O)CCCCCCCCCCCCCCCCC(=O)O)C(=O)O)NC(=O)[C@H](CCCN)NC(=O)[C@H](CC(=O)O)NC(=O)[C@H](CC(C)C)NC(=O)[C@](C)(CC(C)C)NC(=O)[C@@H](NC(=O)[C@H](CO)NC(=O)[C@H](Cc1ccc(O)cc1)NC(=O)[C@H](CC(=O)O)NC(=O)[C@H](CO)NC(=O)[C@@H](NC(=O)[C@](C)(Cc1ccccc1F)NC(=O)[C@@H](NC(=O)CNC(=O)[C@H](CCC(=O)O)NC(=O)C(C)(C)NC(=O)[C@@H](N)Cc1ccc(O)cc1)[C@@H](C)O)[C@@H](C)O)[C@@H](C)CC)[C@@H](C)CC)C(=O)N[C@@H](CCC(=O)O)C(=O)NCC(=O)NCC(=O)N1CCC[C@H]1C(=O)N[C@@H](CO)C(=O)N[C@@H](CO)C(=O)NCC(=O)N[C@@H](C)C(=O)N1CCC[C@H]1C(=O)N1CCC[C@H]1C(=O)N1CCC[C@H]1C(=O)N[C@@H](CO)C(N)=O [Example 2] (H-Y[Aib]EGT[αMePhe(2-F)]TSDYSI[αMeL]LD[Orn]K([AEEA-AEEA-γGlu-C18 diacid])AQ[Aib]EFI[dE]YLIEGGPSSGAPPPS-NH2; N-terminus assumed)
[1]; CD4+ T cell assay
  frequency of positive CD+ T cell response (CDI>2.5): low
[1]; [13]
  % Donor Response (CD4+ T cell response): 22%
  Median Response Strength in positive donors (CDI): 3.68 CDI
[2]
  CL/F: 11.8 mL/day/kg
  Tmax: 24 h
  half-life: 4.25 days
[3]
  AUCINF_D_obs: 231.7 (9.6) hr*kg*nmol/L/nmol
  Cmax/D: 5.19 (0.20) kg*nmol/L/nmol
[4]
  AUCINF_D_obs: 77.23 hr*kg*nmol/L/nmol
  Cmax/D: 5.4 kg*nmol/L/nmol
[5]
  Tmax: 15 min
[6]
  AUCINF_D_obs: 6.6 hr*kg*nmol/L/nmol
[6]; mean (SD)
  Cmax/D: 0.56 (0.40) kg*nmol/L/nmol
[7]
  CL/F: 4.32 mL/h/kg
  Tmax: 14.7 h
  half-life: 1220 min
[8]; 0 min, 1% rSIF, 37° C.
  percentage of peptide not cleaved using rSIF: 100%
[8]; [14]
  remaining at 0.05 h, 0.4 mg/mL: 75.5%
  remaining at 0.25 h, 0.4 mg/mL: 18.3%
  remaining at 1 h, 0.4 mg/mL: 0.3%
[9]
  CL/F: 0.216 mL/min/kg
  Tmax: 6 h
  half-life: 453 min
[10]
  AUCINF_D_obs: 2059 hr*kg*nmol/L/nmol
  Cmax/D: 11.7 kg*nmol/L/nmol
[11]; no PI, control, 0 min
  % peptide intact: 100.00%
[11]; pH 8, no PI, control, 15 min
  remaining at 0.25 h: 2.42%
[11]; pH 8, no PI, control, 30 min
  remaining at 0.5 h: 1.9%
[11]; pH 8, no PI, control, 60 min
  remaining at 1 h: 3.09%
[11]; pH 8, with rSBTI (5 mg/mL), protease inhibitor, rSBTI (5 mg/mL), 15 min
  remaining at 0.25 h: 103%
[11]; pH 8, with rSBTI (5 mg/mL), protease inhibitor, rSBTI (5 mg/mL), 30 min
  remaining at 0.5 h: 113%
[11]; pH 8, with rSBTI (5 mg/mL), protease inhibitor, rSBTI (5 mg/mL), 60 min
  remaining at 1 h: 87.3%
[11]; rSBTCI (0.5 mg/mL), 0 min
  % peptide intact: 100.00%
[11]; rSBTCI (0.5 mg/mL), 15 min
  % peptide intact: 131.71%
[11]; rSBTCI (0.5 mg/mL), 30 min
  % peptide intact: 126.53%
[11]; rSBTCI (0.5 mg/mL), 60 min
  % peptide intact: 123.70%
[11]; rSBTI (5 mg/mL), 0 min
  % peptide intact: 100.00%
[12]
  EC50: 8.82 nM
[12]; normalized to GLP-1 maximum control
  hGLP1R B-Arrestin2 % Top: 96.1%
